Laboratory results published in US8227406B2, “Antimicrobial peptides” (Dermagen AB, priority 2006, dated 2012).

Tests used:
[1] = test system: Staphylococcus aureus ATCC29213; experiment: Radial diffusion assay (RDA), S. aureus; assay type: cell-based
In short: (§1)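 Peptides (20-mers, crude, 5 mM water stock) applied at 6 μl per well to agarose underlay (0.03% TSB, 0.02% Tween 20) holding 4×10^6 bacterial or 1×10^5 fungal cfu from mid-log cultures washed in 10 mM Tris pH 7.4. After 3 h diffusion at 37 °C and nutrient overlay, clear zones read after 18–24 h (37 °C bacteria, 28 °C C. albicans).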

[2] = test system: Eschericia coli ATCC25922; experiment: Radial diffusion assay (RDA), E. coli; assay type: cell-based, Escherichia coli
In short: as §1

erythrocytes = experiment: Hemolysis assay; assay type: cell-based; settings: % of TritonX-100 induced hemolysis; erythrocytes 1 h at 37° C.; peptides (3-60 μM)
Experimental: EDTA-blood was centrifuged at 800 g for 10 min, whereafter plasma and buffy coat were removed. The erythrocytes were washed three times and resuspended in 5% PBS, pH 7.4. The cells were then incubated with end-over-end rotation for 1 h at 37° C. in the presence of peptides (3-60 μM). 2% Triton X-100 (Sigma-Aldrich) served as positive control. The samples were then centrifuged at 800 g for 10 min. The absorbance of hemoglobin release was measured at λ 540 nm and is in the plot expressed as % of TritonX-100 induced hemolysis (Table 1a).

[3] = test system: Candida albicans ATCC90028; experiment: Radial diffusion assay (RDA), C. albicans; assay type: cell-based; design: unit not given here; settings: Table 1a; RDA clear zone
Experimental: Peptides. Peptides were from Sigma-Genosys, generated by a peptide synthesis platform (PEPscreen®, Custom Peptide Libraries, SigmaGenosys). Yield was ˜1-6 mg, and peptide length 20 amino acids. MALDI-ToF Mass Spectrometry was perfomed on these peptides. Average Crude Purity of 20mers was ˜60%. Peptides were supplied lyophilized and in a 96-well tube rack. Prior to biological testing the PEPscreen peptides were diluted in dH2O (5 mM stock), and stored at −20 C. This stock solution was used for the subsequent experiments.
Eschericia coli ATCC25922, Staphylococcus aureus ATCC29213, and the fungal isolate Candida albicans ATCC90028 were obtained from the Department of Bacteriology, Lund University Hospital.
Radial diffusion assays (RDA) were performed essentially as described earlier (Lehrer, R. I., Rosenman, M., Harwig, S. S., Jackson, R. & Eisenhauer, P. (1991) Ultrasensitive assays for endogenous antimicrobial polypeptides, J Immunol Methods. 137, 167-73). Briefly, bacteria (E. coli, S. aureus) or fungi (C. albicans) were grown to midlogarithmic phase in 10 ml of full-strength (3% w/v) trypticase soy broth (TSB) (Becton-Dickinson, Cockeysville, Md.). The microorganisms were washed once with 10 mM Tris, pH 7.4. 4×10^6 bacterial cfu or 1×10^5 fungal cfu was added to 5 ml of the underlay agarose gel, consisting of 0.03% (w/v) TSB, 1% (w/v) low-electroendoosmosistype (Low-EEO) agarose (Sigma, St Louise Mo.) and a final concentration of 0.02% (v/v) Tween 20 (Sigma). The underlay was poured into a Ø 85 mm petri dish. After agarose solidified, 4 mm-diameter wells were punched and 6 μl of test sample was added to each well. Plates were incubated at 37° C. for 3 hours to allow diffusion of the peptides. The underlay gel was then covered with 5 ml of molten overlay (6% TSB and 1% Low-EEO agarose in dH2O). Antimicrobial activity of a peptide is visualized as a clear zone around each well after 18-24 hours of incubation at 37° C. for bacteria and 28° C. for Candida albicans. Other examples of peptides that were screened and found to show an increased effect against the above mentioned microorgansism are listed below. Some of the results are found in table 1c showing the effects against C. albicans, table 1d E. coli and table 1e S. aureus.

[4] = Table 1b, 10 mM Tris Hcl (pH 7.4)

CC[C@H](C)[C@H](NC(=O)[C@H](CCCCN)NC(=O)[C@H](CCC(=O)O)NC(=O)[C@H](CCCCN)NC(=O)[C@H](CO)NC(=O)[C@H](CCCCN)NC(=O)[C@H](CCCNC(=N)N)NC(=O)[C@H](Cc1ccccc1)NC(=O)[C@H](Cc1ccccc1)NC(=O)[C@H](CC(=O)O)NC(=O)CNC(=O)[C@H](CC(C)C)NC(=O)[C@@H](N)CC(C)C)C(=O)NCC(=O)N[C@@H](CCCCN)C(=O)N[C@@H](CCC(=O)O)C(=O)N[C@@H](Cc1ccccc1)C(=O)N[C@@H](CCCCN)C(=O)N[C@@H](CCCNC(=N)N)C(=O)N[C@H](C(=O)N[C@H](C(=O)N[C@@H](CCC(N)=O)C(=O)N[C@@H](CCCNC(=N)N)C(=O)N[C@H](C(=O)N[C@@H](CCCCN)C(=O)N[C@@H](CC(=O)O)C(=O)N[C@@H](Cc1ccccc1)C(=O)N[C@@H](CC(C)C)C(=O)N[C@@H](CCCNC(=N)N)C(=O)N[C@@H](CC(N)=O)C(=O)N[C@@H](CC(C)C)C(=O)N[C@H](C(=O)N1CCC[C@H]1C(=O)N[C@@H](CCCNC(=N)N)C(=O)N[C@H](C(=O)N[C@@H](CCC(=O)O)C(=O)N[C@@H](CO)C(=O)O)[C@@H](C)O)C(C)C)[C@@H](C)CC)C(C)C)[C@@H](C)CC [LL-37, reference compound]
S. aureus ATCC 29213 Mean ([1]; Table 1a, RDA clear zone): 4.660
RDA values (mm) S. aureus ATCC 29213 [1, 4]: 3.23 mm
E.coli ATCC 25922 Mean, Ingrowth* counted ([2]; Table 1a, RDA clear zone, ingrowth counted): 6.53
E.coli ATCC 25922 Mean, Ingrowth not counted ([2]; Table 1a, RDA clear zone, ingrowth not counted): 0.653
RDA values (mm) E. coli ATCC 25922 [2, 4]: 7.55 mm
Hemolysis (%) Mean (erythrocytes): 21.464%
Candida albicans ATCC 90028 Mean [3]: 4.890
